Results as given in paper PMC11413854, “Reversible Control of Native GluN2B-Containing NMDA Receptors with Visible Light” (ACS Chemical Neuroscience, 2024).
Values joined by “and” are separate entries in the source; they are usually repeats but may differ in a detail not shown here. Equal values may be shown once. One block for each compound: values may come before it.

Experiment: Photostationary state (cis/trans) composition in solution by HPLC, UV-vis or 1H NMR
Type: physicochemical
Settings: for % of trans in solution: Fig. 5J; for % of cis in solution: Figure 5E
Text: To characterize the photochemical properties of OptoNAM-3, we focused on the three key properties allowing the use of azobenzenes in biological systems: (i) wavelengths for trans-to-cis and cis-to-trans conversions; (ii) compound thermalstability, i.e., half-life of the cis isomer in the dark; and (iii) fatigability, i.e., the number of illumination cycles that the molecule can undergo without degradation. To this aim, we acquired UV–visible absorption spectra of OptoNAM-3 diluted in Xenopus oocyte recording solution (Ringer pH 7.3; see Methods) either in the dark (absence of illumination) or after illumination by light wavelengths ranging from 350 to 580 nm (Figures 2B and S1M). In the dark (black curve in Figure 2B), the spectrum was characteristic of a trans isomer.[32] Application of UV light at a wavelength close to the main absorption peak of the trans form (365 or 350 nm) gave a completely different spectrum (violet curves in Figure 2B), characteristic of azobenzenes in their cis configuration.[32] HPLC analysis of OptoNAM-3 in solution identified photostationary states (PSS) containing 100% trans in the dark, 82% cis and 18% residual trans after illumination at 365 nm (365 nm PSS, violet curve in Figure 2C), and 91% cis and 9% residual trans after illumination at 350 nm (350 nm PSS, lavender curve in Figure 2C). […] Irradiation of OptoNAM-3 365 nm PSS with wavelengths from 435 to 550 nm gave equivalent cis-to-trans conversions with 435 and 550 nm yielding slightly stronger conversions (∼70% trans after illumination at 435 and 550 nm calculated from UV–visible spectra at λtrans = 329 nm, Figures 2B and S1N; 550 nm PSS of 69% trans and 31% cis measured by HPLC, Figure 2C, green trace). 550 nm was chosen as the optimal wavelength since green light is less harmful for cells than lights of shorter wavelengths. We then tested the thermal stability of the cis form in the dark (in the absence of illumination). […] This very high stability is interesting because it avoids the prolonged use of light to maintain OptoNAM-3 in the desired configuration. OptoNAM-3 could finally endure many illumination cycles without degradation (Figure 2E).
UV–vis absorbance spectra were measured from in 1 cm long quartz cuvettes on a NanoPhotometer NP80 spectrometer (Implen, Germany). We used solutions of 10, 50, or 100 μM OptoNAMs diluted in Ringer at pH 7.3 (for TEVC extracellular recording solution, see below) from the 50 mM stock solution in DMSO. Photostationary states of OptoNAMs in Ringer for different illumination wavelengths were obtained by continuous illumination with multiwavelength LEDs (pE-2 and pE-4000, CoolLED, UK [power ∼75 mW]) or photochemical reactor RPR-100 Rayonet US (power ∼2 mW) for 350 nm, until no further change in the absorption spectra could be observed. For all irradiation wavelengths tested, 10 min illumination was sufficient to reach the steady state.
The cis–trans compositions of OptoNAM-3 in the dark and after illumination by 365, 350, and 550 nm were determined by HPLC using the relative integrated areas of the cis and trans peaks at the isosbestic point at 280 nm, […], considering that the sum of integrated area for two peaks is 100%. We checked that ratios measured at the isosbestic point at 390 nm were similar. Analytical HPLC was performed on an Agilent 1200 series equipped with a quaternary pump using a Nucleodur C18 HTech column from Macherey-Nagel Inc. (particle size 3 μm, 150 × 4.6 mm column). The compounds were eluted with a flow of 1 mL/min using a gradient of acetonitrile (0–100% over 15 min) in water, with both solvents containing 0.1% TFA. Detection was performed at 220, 280, and 390 nm.
The dark and 365 nm PSS were furthermore characterized by ^1H NMR spectroscopy with the OptoNAMs diluted in DMSO-d6 and the relative abundance of trans and cis isomers quantified using ^1H NMR spectra. […]

[1] = HPLC, physiological aqueous buffer
[2] = in solution, UV-visible spectra
[3] = in solution, calculated from UV-visible spectra at 329 nm
[4] = physiological buffer, UV-visible, measured at λtrans

365 nm PSS, cis, in DMSO (DMSO, 1H NMR): 90% | % of trans in solution (365 nm): 18.030% | % of trans in solution (385 nm): 53.274% | % of trans in solution (435 nm): 71.738% | % of trans in solution (460 nm): 68.781% | % of trans in solution (490 nm): 68.847% | % of trans in solution (525 nm): 62.601% | % of trans in solution (550 nm): 70.739% | % of trans in solution (580 nm): 68.208% | % of cis in solution (365 nm): 82.000% | % of cis in solution (385 nm): 48.439% | % of cis in solution (435 nm): 30.261% | % of cis in solution (460 nm): 30.902% | % of cis in solution (490 nm): 32.185% | % of cis in solution (525 nm): 29.192% | % of cis in solution (550 nm): 27.267% | % of cis in solution (580 nm): 25.128% | 550 nm PSS, cis (HPLC): 31% | 550 nm PSS, trans (HPLC): 69% | PSS in the dark, trans (HPLC, aqueous solution): 100% | 350 nm PSS, cis [1]: 91% | 350 nm PSS, residual trans [1]: 9% | 365 nm PSS, residual trans [1]: 18% | 365 nm PSS, cis (HPLC, physiological aqueous buffer (free OptoNAM-3)): 82% | cis after 460 nm illumination of the dark PSS [2]: ~31% | cis after 550 and 580 nm illumination of the dark PSS [2]: ~30% | trans after 460 nm illumination of the 365 nm PSS [2]: 69% | trans after 435 nm illumination of the 365 nm PSS [3]: ~70% and 72% | trans after 550 nm illumination of the 365 nm PSS [3]: ~70%
SMILES: c1ccc(/N=N/c2ccc(CCNc3ccncc3)cc2)cc1 [OptoNAM-3, (E)-N-(4-(Phenyldiazenyl)phenethyl)pyridin-4-amine]

trans after 490 nm irradiation of the 365 nm PSS [4]: ~ 52%
SMILES: Cc1cc(N)nc(/N=N/c2ccccc2)c1 [OptoNAM-2, (E)-4-methyl-6-(phenyldiazenyl)pyridin-2-amine]

trans after 440 nm irradiation of the 365 nm PSS [4]: 100%
SMILES: CS(=O)(=O)Nc1ccc2nc(Cc3ccc(/N=N/c4ccccc4)cc3)[nH]c2c1 [OptoNAM-4, (E)-N-(2-(4-(phenyldiazenyl)benzyl)-1H-benzo[d]imidazol-6-yl)methanesulfonamide]

trans after 440 nm irradiation of the 365 nm PSS [4]: ~ 75%
SMILES: Nc1ccnc(/N=N/c2ccccc2)c1 [OptoNAM-1, (E)-2-(phenyldiazenyl)pyridin-4-amine]
